Laboratory results reported in article PMC7513592 (RSC Medicinal Chemistry, 2020).

Key:
[1] = biological target: T1, YFP-TRPV6 (Homo sapiens, UniProt Q9H1D0); assay: Whole-cell electrophysiology on YFP-TRPV6 transfected HEK293 cells; format: cell-based; conditions: 10 mM Ca2+, read-out: inhibition of TRPV6 current densities
T1 construct: expressed in transfected cells; host or cells: HEK293 (DSMZ), transient (TransFectin)
T1 sequence (Q9H1D0 41-765 limits assumed): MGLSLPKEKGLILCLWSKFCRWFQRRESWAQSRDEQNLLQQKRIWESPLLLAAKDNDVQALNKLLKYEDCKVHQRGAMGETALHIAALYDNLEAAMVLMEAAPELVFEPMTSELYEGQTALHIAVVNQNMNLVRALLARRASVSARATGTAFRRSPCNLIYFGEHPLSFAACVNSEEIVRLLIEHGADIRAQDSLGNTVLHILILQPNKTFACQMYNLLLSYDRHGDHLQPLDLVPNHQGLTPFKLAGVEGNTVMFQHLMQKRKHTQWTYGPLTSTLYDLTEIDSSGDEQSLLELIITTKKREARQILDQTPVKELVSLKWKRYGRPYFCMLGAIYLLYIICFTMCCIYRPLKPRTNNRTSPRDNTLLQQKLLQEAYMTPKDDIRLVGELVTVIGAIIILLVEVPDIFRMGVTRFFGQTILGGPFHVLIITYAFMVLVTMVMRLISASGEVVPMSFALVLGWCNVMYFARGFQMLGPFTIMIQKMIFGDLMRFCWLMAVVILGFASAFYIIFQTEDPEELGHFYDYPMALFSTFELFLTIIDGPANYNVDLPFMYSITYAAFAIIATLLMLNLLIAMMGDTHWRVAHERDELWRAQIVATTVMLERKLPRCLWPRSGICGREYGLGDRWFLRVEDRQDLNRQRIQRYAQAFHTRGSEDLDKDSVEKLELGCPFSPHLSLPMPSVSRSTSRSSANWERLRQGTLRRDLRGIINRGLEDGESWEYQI
Procedure: Electrophysiological experiments on YFP-TRPV6 transiently transfected HEK293 cells confirmed the activity of 39 on TRPV6. Initially, 10 mM Ca^2+ solution was applied and after the currents reached a plateau, the inhibitors at 0.1 and 10 μM were added. […] In comparison to the previously described 1, the inhibition by 39 occurred at a slower rate and was less pronounced.
HEK293 cells (DSMZ, Germany) were cultivated in DMEM medium containing 10% FCS, 100 μg/ml streptomycin and 100 U/ml penicillin. 24 h before the experiments, a transient transfection with the peYFP-C1 TRPV6 plasmid was performed by utilising TransFectinTM Lipid Reagent (Bio-Rad).
Electrophysiological experiments were conducted at room temperature (20 - 24°C) in the whole-cell configuration with an Ag/AgCl reference electrode. Voltage ramps over a time period of 200 ms from -90 to +90 mV were performed every 5 s with a holding potential of 50 mV. The internal pipette solution consisted of 145 mM Cs-methanesulfonate, 8 mM NaCl, 5 mM MgCl2, 10 mM HEPES and 20 mM EGTA, pH 7.2. The extra cellular solution (10 mM Ca2+) contained: 145 mM NaCl, 5 mM CsCl, 1 mM MgCl 2, 10 mM HEPES, 10 mM glucose and 10 mM CaCl 2, pH 7.4. The leak-correction of the currents were conducted by subtraction of the remaining leak currents after La 3+ bock. The liquid junction potential was determined as 12 mV, though applied voltages were not corrected. […]

[2] = test system: store-operated calcium channels; assay: SOCE FLIPR assay in MDA-MB-231 cells; format: cell-based, human; conditions: 5 μM
Procedure: Fig. 9 A. Recording of store-operated Ca^2+ entry (SOCE) in MDA-MB-231 cells pretreated for 20 min with either DMSO or SOCE inhibitor GSK-7975A, or 1vs.39. Ca^2+ store-depletion was achieved by 10 min treatment of cells with 1 μM thapsigargin (Tg) in a nominally Ca^2+ free buffer. […] The P-value of the 1vs.39 pretreated cells is indicated above the respective bar as *** for p ≤ 0.001 or non-significant (n.s.) for p > 0.05.
MDA-MB-231 cells were trypsinized and plated at 6 x 10^4 cells/well onto 96-well black plates with clear bottom using 100 μl phenol -red free RPMI medium supplemented with 10% FBS. SOCE activity was measured 16 h later using the previousl y described FLIPR assay.11 After 16 h the medium was replaced with 50 μL of NCF loading buffer and the cells were incubated at 37 °C for 40 min, following which 50 µL of 2X drugs were manually applied (GSK-7975A, 1 or 39) and the cells were incubated for another 20 min.
Stable Ca2+-free baselines were established for 50 seconds before 50 μL of a 3X thapsigargin (Tg) was robotically administered to the cells. Cells were incubated at 37 °C and fluorescence was monitored in the presence of Tg for an additional 10 minutes before administration of 50 μL of 4X CaCl 2. The activity of SOCE was measured by calculating the area under t he curve of the Ca2+ entry traces.

`O=c1ccc(CN2CCN([C@H]3CC[C@@](O)(c4cccc(C(F)(F)F)c4)CC3)CC2)c[nH]1` [compound 39] was tested, and the inhibition at 0.1 µM ([1]; 0.1 μM) was 30.8 ± 5.1%, the inhibition at 10 µM ([1]; 10 μM) was 88.2 ± 2% and the “activity on store-operated calcium channels” value [2] was “no detectable activity”.
